# Assay results reported in patent publication US20040203034A1 (The University of Chicago, priority 2003, published 2004).
# Where two headings read alike, the source gives them in different places.
# Assays:
# UGT1A isoforms = assay: In vitro TAS-103 and SN-38 glucuronidation activity in species deficient in UGT1A isoforms; type: in vitro ADME; conditions: Gunn rats and CN-1 patients deficient in UGT1A isoforms
# Excerpt: On the other hand, while isoforms of the UGT1 family are the predominate isoforms involved in TAS-103 glucuronidation, the isoform of the UGT2 family may also participate in TAS-103 glucuronidation. Failure to glucuronidate SN-38 and TAS-103 in these instances may result specifically from the genetic defect in UGT1 gene family.
# UGT1A1 = molecular target: T1, UGT1A1 (Homo sapiens, UniProt P22309); assay: SN-38 glucuronidation assay in human liver microsomes; type: in vitro ADME; conditions: for SN-38 glucuronidation rate: Caucasians
# T1 construct: microsomes were isolated following differential centrifugation methods; tissue Liver Tissue Procurement and Distribution System; Liver Core Bank Facility (St. Jude Children's Research Hospital); host or cells: normal human liver microsomes (n=83 donors)
# T1 sequence (P22309 26-533): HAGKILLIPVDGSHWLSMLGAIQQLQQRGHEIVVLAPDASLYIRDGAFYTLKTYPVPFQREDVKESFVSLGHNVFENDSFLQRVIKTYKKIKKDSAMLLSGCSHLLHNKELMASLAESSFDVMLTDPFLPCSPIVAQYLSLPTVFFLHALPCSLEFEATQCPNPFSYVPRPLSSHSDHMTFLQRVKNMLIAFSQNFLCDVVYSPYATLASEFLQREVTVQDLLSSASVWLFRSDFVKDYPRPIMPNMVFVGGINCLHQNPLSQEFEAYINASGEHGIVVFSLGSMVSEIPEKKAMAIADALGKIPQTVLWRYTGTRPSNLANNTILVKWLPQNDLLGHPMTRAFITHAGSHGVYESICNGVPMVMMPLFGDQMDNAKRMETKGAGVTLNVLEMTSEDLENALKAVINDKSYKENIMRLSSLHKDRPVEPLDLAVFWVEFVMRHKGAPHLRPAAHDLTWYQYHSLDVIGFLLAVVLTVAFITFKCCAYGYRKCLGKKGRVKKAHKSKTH
# Excerpt: Normal human livers (n=83) were mainly obtained from Liver Tissue Procurement and Distribution System (National Institutes of Diabetes and Digestive and Kidney Diseases, Minneapolis, Minn.). DNA was isolated by using Qiagen RNA/DNA Maxi Kit (Qiagen Inc., Valencia, Calif., USA), and microsomes were isolated following differential centrifugation methods (Purba et al., 1987). DNA and microsomes were provided by the Liver Core Bank Facility (St. Jude Children's Research Hospital) of the Pharmacogenetics of Anticancer Agents Research (PAAR) Group. In order to identify livers in which enzyme degradation occurred, liver samples consistently comprised in the 10th percentile of UGT1A1, UGT1A9 and UGT2B7 activities were sought. UGT1A9 and UGT2B7 activities were measured using specific probes (data not shown) (Ramirez et al., 2002 and Innocenti, et al., 2001). Out of eight samples within the 10th percentile of UGT1A1, only one sample was comprised within the 10th percentile of activities of the other two enzyme activities.
# Samples were phenotyped by using SN-38 as a substrate for UGT1A1. The incubation mixture consisted of 5 μmol SN-38, 10 mmol MgCl2, 1 mg/ml microsomes, 0.025 mol Tris-HCl (pH 7.4) and 5 mmol UDP-GA. Samples were incubated for 30 min at 37° C. The reaction was stopped by the addition of methanol. These conditions were selected after previous optimization of the enzyme reaction (Iyer et al., 1998). Camptothecin (75 ng) was used as an internal standard. SN-38 glucuronidation was measured by HPLC (Hitachi Instruments Inc., San Jose, Calif., USA) with fluorescence detection (λ excitation=355 nm, λ emission=515 nm). A μBondapak™ C18 column (3.9×300 mm, 10 μm; Waters Corp., Milford, Mass., USA) and μBondapak™ C18 guardpak (Waters Corp.) were used. A mobile phase of […] acetonitrile/tetra-hydrofuran/0.9 mmol sodium heptanedfonic acid in 50 mmol potassium dihydrogen phosphate (pH 4) was used during the first 7 min of the run. From 7.1-25 min, the eluent consisted of 30/70 acetonitrile/5 mmol sodium heptanesulfonic acid in 50 mmol potassium dihydrogen phosphate (pH 4). The flow rate was 0.9 ml/min. […] The intra-assay variability was determined by performing 10 incubations on the same day using a pool of human liver microsomes. The inter-assay variability was evaluated by incubating a pool of human liver microsomes in triplicate on three different days. […]
# UGT1A1 activity was phenotyped by measuring SN-38 glucuronidation rates of each liver as the mean±SD of a single experiment performed in triplicate. […] Moreover, trend analysis and pairwise comparisons were performed in genotypes expressed as the sum of TA repeats in both chromosomes (i.e. in samples with […] (5/6, 6/6, 5/7), 13 (6/7) and […] (7/7, 6/8, 7/8) TA repeat genotypes). […]
# [1] = Pharmacokinetic analysis of irinotecan and metabolites in patient plasma; type: in vivo, human; conditions: for SN-38 AUC, mean / SN-38^b AUC, mean: after irinotecan; for AUC: human, plasma, 350 mg/m2, Irinotecan AUC, mean
# Description: Venous blood for pharmacokinetic analysis was collected on day 1 of cycle 1 for pharmacokinetic analysis. Samples of 7 ml were collected into green top sodium heparinized Vacutainer® tubes prior to the infusion; 30, 60, and 90 minutes during the infusion; and 10, 20, 30, 45, and 60 minutes and 1.5, 2, 4, 6, 12, and 24 hours after the infusion. Samples were centrifuged (2500 rpm, 20 min, 4° C.) and the plasma was immediately separated, transferred as two aliquots into storage tubes, frozen at −80° C. until analysis.
# The glucuronidation ratio was expressed as the ratio of the SN-38G AUC over SN-38 AUC.
# solid tumors or lymphoma = assay: Objective tumor response in patients given irinotecan; type: in vivo, human
# [2] = test system: patients with solid tumors or lymphoma
# patients = conditions: cited from earlier work
# [3] = TA indel genotype 6/6, 30 patients
# [4] = TA indel genotype 6/7, 25 patients
# [5] = TA indel genotype 7/7, 6 patients
smiles,measurement,setting,value
"CN(C)CCNc1nc2cc(O)ccc2c2c1C(=O)c1ccccc1-2.Cl.Cl [TAS-103, 6-[[2-(dimethylamino)ethyl]amino]-3-hydroxy-7H-indeno[2,1-c]quinoline-7-one dihydrochloride]",lower glucuronidation rate in vitro compared to healthy liver donors,UGT1A isoforms,~80%
"CCc1c2c(nc3ccc(O)cc13)-c1cc3c(c(=O)n1C2)COC(=O)[C@]3(O)CC [SN-38, 7-ethyl-10-hydroxycamptothecin]",coefficient of variation of SN-38 glucuronidation,UGT1A1; 83 human liver microsomes,46%
same,range in SN-38 glucuronidation,UGT1A1; 83 human liver microsomes,10 fold
same,SN-38 glucuronidation rate,UGT1A1; I/I haplotype pairs,2.53±0.82 SN-38G/IS
same,SN-38 glucuronidation rate,UGT1A1; I/II haplotype pairs,2.06±0.74 SN-38G/IS
same,in vitro glucuronidation compared to healthy liver donors,UGT1A isoforms,no in vitro glucuronidation
same,"Glucuronidation Ratio (SN-38G AUC/SN-38 AUC), mean",[1]; [3],6.52
same,"SN-38 AUC, mean",[1]; [3],335.9 ng·h/mL
same,"SN-38^b AUC, mean",[1]; [3],1954.2 ng·h/mL
same,"Glucuronidation Ratio (SN-38G AUC/SN-38 AUC), mean",[1]; [4],5.55
same,"SN-38 AUC, mean",[1]; [4],458.4 ng·h/mL
same,"SN-38^b AUC, mean",[1]; [4],1887.9 ng·h/mL
same,"Glucuronidation Ratio (SN-38G AUC/SN-38 AUC), mean",[1]; [5],3.59
same,"SN-38 AUC, mean",[1]; [5],542.0 ng·h/mL
same,"SN-38^b AUC, mean",[1]; [5],1819.1 ng·h/mL
"CCc1c2c(nc3ccc(OC(=O)N4CCC(N5CCCCC5)CC4)cc13)-c1cc3c(c(=O)n1C2)COC(=O)[C@]3(O)CC [irinotecan, 7-ethyl-10-[4-(1-piperidino)-1-piperidino]carbonyloxycamptothecin]",AUC,"[1]; intravenous, TA indel genotype 6/7, 25 patients",26100 ng·h/mL
same,AUC,"[1]; intravenous, TA indel genotype 7/7, 6 patients",25400 ng·h/mL
same,AUC,"[1]; iv, TA indel genotype 6/6, 30 patients, 350 mg/m2 90 minute i.v. infusion",24400 ng·h/mL
same,objective responses,solid tumors or lymphoma; 60 patients assessable for response,three objective responses
same,"partial response, patients","solid tumors or lymphoma; colorectal and head and neck cancer, 6/7 genotype",Two patients
same,"complete response, patients","solid tumors or lymphoma; colorectal cancer, 6/6 genotype",One colorectal cancer patient
same,frequency of grade 4 neutropenia,"[2]; TA indel genotype 6/6 (0/30), cycle 1",0%
same,frequency of grade 4 neutropenia,"[2]; TA indel genotype 6/7 (3/24), cycle 1",12.5%
same,frequency of grade 4 neutropenia,"[2]; TA indel genotype 7/7 (3/6), cycle 1",50%
same,frequency of grade 4 neutropenia,"[2]; all assessable patients, cycle 1, 350 mg/m2 i.v. every 3 weeks",9.5%
same,frequency of grade 3 diarrhea,"[2]; all patients, cycle 1",5%
same,grade 4 diarrhea,"[2]; all patients, cycle 1",no instances
same,toxic death,"[2]; neutropenia-related sepsis, 7/7 genotype, died on day 11",One toxic death
same,patients with grade 4 neutropenia,[2]; out of the 7 patients with total bilirubin higher than 0.7 mg/dl,4
same,cases of grade 4 neutropenia,[2]; patients with pretreatment total bilirubin less than 0.6 mg/dl,No cases
same,patients experiencing grade 3-4 neutropenia,patients; both weekly and three-weekly regimens,30-40%
same,"grade 3-4 diarrhea, share of patients",patients; early single agent trials (Negoro 1991; Rothenberg 1993),about one third
same,frequency of grade 3-4 diarrhea,"patients; three-weekly regimen (Fuchs et al., 2003)",19%
same,mortality rate,"patients; three-weekly single agent regimen (Fuchs et al., 2003)",1.6%
same,frequency of grade 3-4 diarrhea,"patients; weekly schedule (Fuchs et al., 2003)",36%
same,mortality rate,"patients; weekly single agent regimen (Fuchs et al., 2003)",5.3%
